{"source": "paper PMC10835732", "about": "“Pharmacokinetics of Hydroxytyrosol and Its Sulfate and Glucuronide Metabolites after the Oral Administration of Table Olives to Sprague-Dawley Rats” (Journal of Agricultural and Food Chemistry, 2024)", "key": {"[1]": {"assay": "Plasma pharmacokinetics (noncompartmental analysis) after single oral administration of Arbequina table olives", "assay_type": "in vivo, Sprague-Dawley rats", "settings": "for Cmax/D: D = dose of hydroxytyrosol in nmol; for AUC0–∞/D / AUCt/D: D in nmol; for AUCt: time zero up to 8 h; for Tmax: median (min, max); for k el: read-out: λz (apparent elimination rate constant) (converted); for Cmax: read-out: Peak plasma concentration (Cmax), text value with ± spread", "protocol": "The experiments were performed using Sprague–Dawley rats (n = 13) randomly divided into two groups, the 30 olives group (n = 6) that received the dose of 3.85 g/kg and the 60 olives group (n = 7), which was given the dose of 7.70 g/kg. The freshly prepared homogeneous suspensions were given to overnight fasted rats by oral gavage (18-gauge × 76 mm, ref FFSS-186-76, Instech Laboratories, Inc., Plymouth Meeting, PA). The volume of administration was 10 mL/kg. After the single administration of Arbequina table olives, blood was obtained at 30, 60, 90, 120, 240, 360, and 480 min from each animal. Samples were withdrawn from the lateral saphenous vein and placed into Microvette CB 300 K2 EDTA-K2 (Sarstedt, Granollers, Spain) coated tubes.[31] At each time point, 0.40 mL of blood was collected, meaning that a maximum of 2.4 mL was obtained from each animal. […] Blood corresponding to 480 min was taken by a cardiac puncture with the animal under terminal anesthesia. Plasma was immediately obtained by centrifugation at 1500g at 4 °C for 15 min (Centrifuge Megafuge 1.0R, Heraeus, Boadilla, Spain) and kept at −20 °C until analysis.\nHydroxytyrosol and its metabolites in plasma were determined by liquid–liquid extraction followed by LC-MS/MS analysis as previously described.[11] Briefly, 200 μL of plasma was mixed with 10 μL of freshly prepared 10% ascorbic acid followed by 10 μL of 0.5% acetic acid and 10 μL of 2-(3-hydroxyphenyl) ethanol (10 μM, I.S.). Then, 2 mL of ethyl acetate was added to the samples that were vigorously mixed in a vortex (5 min), placed into an ultrasonic bath (10 min), and centrifuged at 1500g at 4 °C (15 min) (Centrifuge Megafuge 1.0R). A second extraction of the pellet with 2 mL of ethyl acetate was carried out. Subsequently, the two pooled supernatants were evaporated to dryness, reconstituted with 100 μL of 80% methanol, placed into amber vials, and immediately analyzed by LC-MS/MS.\nThe plasmatic concentrations were calculated by the interpolation of the peak area ratio of hydroxytyrosol versus I.S. on a calibration curve. Calibration standards were constructed with blank plasma obtained by cardiac puncture from overnight fasted rats that had never received either table olives or hydroxytyrosol. […] Results were expressed in nmol per liter of plasma (nmol/L). The method was validated following the EMA guidelines[33] at six different concentrations ranging from 0 to 250 nmol/L analyzed on three different days.\nIndividual PK of hydroxytyrosol and its metabolites were estimated from the plasma concentrations versus time profiles of each animal, through a noncompartmental analysis (NCA) with Phoenix-64 (Build 8.3.4.295, Certara, Princeton, N.J., USA). All concentrations of each pharmacokinetic profile were considered for NCA because the values obtained were above the LOQ. Peak plasma concentration (Cmax) and time to peak plasma concentration (Tmax) were determined by visual inspection of the pharmacokinetic profiles. The apparent elimination rate constant (λz) was estimated from the terminal slope of the semilogarithmic concentration–time curve. The apparent elimination half-life (t1/2λz) was calculated as t1/2z = 0.693/λz. The area under the plasma concentration–time curve from time zero to the last experimental time (AUCt) with analyte concentrations above the LOQ, was calculated by the linear-log trapezoidal rule. The area from time zero to infinity (AUC0–∞) was calculated by adding to the AUCt value the extrapolated area calculated as the ratio between the predicted concentration (Ct) at the last sampling time with concentrations above the LOQ and λz. The mean residence time (MRT0–∞) was given by the ratio of the area under the first-moment curve (AUMC0–∞) to the area under the zero-moment curve (AUC0–∞). The ratio indicating the relative exposure of each metabolite with respect to hydroxytyrosol (AUC0–∞m/AUC0–∞) was also calculated for all of the metabolites. […]"}, "[2]": {"settings": "ref Serra et al. 23, cited from earlier work"}, "[3]": {"settings": "healthy volunteers, ref Goldberg et al. 26, cited from earlier work; for AUC: 10 Kalamata olives"}, "[4]": {"settings": "30 olives group (hydroxytyrosol 2.95 mg/kg oral), geometric mean (95% CI)"}, "[5]": {"settings": "60 olives group (hydroxytyrosol 5.89 mg/kg oral), geometric mean (95% CI)"}}, "note": "Values joined by “and” are separate entries in the source; they are usually repeats but may differ in a detail not shown here. Equal entries are not always repeated. Where two headings read alike, the source gives them in different places. Marks after values point to notes of the source that are not given here."}
{"smiles": "OCCc1ccc(O)c(O)c1", "note": "[hydroxytyrosol]", "values": [{"measurement": "AUC0–∞", "setting": "[1]; 30 olives group (3.85 g olives/kg, hydroxytyrosol 2.95 mg/kg oral), geometric mean (95% CI)", "value": "4293 min·nmol/L and 4293 (3815, 4830)^a min·nmol/L"}, {"measurement": "Cmax/D", "setting": "[1]; [4]", "value": "0.0044 (0.0026, 0.0077)^a"}, {"measurement": "AUC0–∞/D", "setting": "[1]; [4]", "value": "0.8149 (0.7420, 0.8949)^a"}, {"measurement": "AUCt/D", "setting": "[1]; [4]", "value": "0.6383 (0.5153, 0.7907)^a"}, {"measurement": "Vss/F (apparent steady-state volume of distribution)", "setting": "[1]; [4]", "value": "1139 (671.4, 1932)^a L/kg"}, {"measurement": "AUCt", "setting": "[1]; [4]", "value": "3363 (2642, 4280)a min·nmol/L"}, {"measurement": "AUC0–∞", "setting": "[1]; 60 olives group (7.70 g olives/kg, hydroxytyrosol 5.89 mg/kg oral), geometric mean (95% CI)", "value": "8919 min·nmol/L and 8919 (6920, 11495)^b min·nmol/L"}, {"measurement": "Cmax/D", "setting": "[1]; [5]", "value": "0.0039 (0.0028, 0.0053)^a"}, {"measurement": "AUC0–∞/D", "setting": "[1]; [5]", "value": "0.7993 (0.6170, 1.035)^a"}, {"measurement": "AUCt/D", "setting": "[1]; [5]", "value": "0.7091 (0.5407, 0.9300)^a"}, {"measurement": "Vss/F (apparent steady-state volume of distribution)", "setting": "[1]; [5]", "value": "882.8 (674.2, 1161)^a L/kg"}, {"measurement": "Tmax", "setting": "[1]; 60 olives group (hydroxytyrosol 5.89 mg/kg oral)", "value": "41 (33, 68)^a min"}, {"measurement": "AUCt", "setting": "[1]; [5]", "value": "7912 (6031, 10381)^b min·nmol/L"}, {"measurement": "half-life", "setting": "[1]; Sprague-Dawley, rat, plasma, oral, both doses, assuming first-order absorption, read-out: absorption half-life inferred from Cmax/AUC", "value": "2.1 to 2.4", "unit": "h"}, {"measurement": "CL/F", "setting": "[1]; Sprague-Dawley, rat, plasma, oral, both doses, read-out: Cl/F", "value": "~258", "unit": "L/h/kg"}, {"measurement": "Vd/F", "setting": "[1]; Sprague-Dawley, rat, plasma, oral, both doses, read-out: Vss/F or Vdarea/F", "value": "~1000", "unit": "L/kg"}, {"measurement": "Vd/F", "setting": "[1]; Sprague-Dawley, rat, plasma, po, 2.95 mg/kg, 30 olives group (hydroxytyrosol 2.95 mg/kg oral), geometric mean (95% CI), read-out: Vdarea/F (apparent volume of distribution, terminal phase)", "value": 1070, "unit": "L/kg"}, {"measurement": "Vd/F", "setting": "[1]; Sprague-Dawley, rat, plasma, po, 2.95 mg/kg, 30 olives group (hydroxytyrosol 2.95 mg/kg oral), geometric mean (95% CI), read-out: Vss/F (apparent steady-state volume of distribution)", "value": 1140, "unit": "L/kg"}, {"measurement": "half-life", "setting": "[1]; Sprague-Dawley, rat, plasma, po, 2.95 mg/kg, 30 olives group (hydroxytyrosol 2.95 mg/kg oral), geometric mean (95% CI), read-out: t1/2λz (apparent elimination half-life)", "value": 2.77, "unit": "h"}, {"measurement": "Tmax", "setting": "[1]; Sprague-Dawley, rat, plasma, po, 2.95 mg/kg, 30 olives group (hydroxytyrosol 2.95 mg/kg oral), read-out: Tmax (converted)", "value": "~1", "unit": "h"}, {"measurement": "Vd/F", "setting": "[1]; Sprague-Dawley, rat, plasma, po, 5.89 mg/kg, 60 olives group (hydroxytyrosol 5.89 mg/kg oral), geometric mean (95% CI), read-out: Vdarea/F (apparent volume of distribution, terminal phase)", "value": 678, "unit": "L/kg"}, {"measurement": "Vd/F", "setting": "[1]; Sprague-Dawley, rat, plasma, po, 5.89 mg/kg, 60 olives group (hydroxytyrosol 5.89 mg/kg oral), geometric mean (95% CI), read-out: Vss/F (apparent steady-state volume of distribution)", "value": 883, "unit": "L/kg"}, {"measurement": "half-life", "setting": "[1]; Sprague-Dawley, rat, plasma, po, 5.89 mg/kg, 60 olives group (hydroxytyrosol 5.89 mg/kg oral), geometric mean (95% CI), read-out: t1/2λz (apparent elimination half-life)", "value": 1.83, "unit": "h"}, {"measurement": "Tmax", "setting": "[1]; Sprague-Dawley, rat, plasma, po, 5.89 mg/kg, 60 olives group (hydroxytyrosol 5.89 mg/kg oral), read-out: Tmax (converted)", "value": "~0.667", "unit": "h"}, {"measurement": "half-life", "setting": "[1]; Sprague-Dawley, rat, plasma, po, both doses (30 and 60 olives groups), oral table olives, read-out: half-life (t1/2λz) (converted)", "value": "~2.5", "unit": "h"}, {"measurement": "CL/F", "setting": "[1]; Sprague-Dawley, rat, plasma, 30 olives group (hydroxytyrosol 2.95 mg/kg oral), geometric mean (95% CI), read-out: Cl/F (apparent clearance)", "value": 268, "unit": "L/h/kg"}, {"measurement": "MRT inf", "setting": "[1]; Sprague-Dawley, rat, plasma, 30 olives group (hydroxytyrosol 2.95 mg/kg oral), geometric mean (95% CI), read-out: MRT0–∞ (converted)", "value": 4.26, "unit": "h"}, {"measurement": "k el", "setting": "[1]; Sprague-Dawley, rat, plasma, 30 olives group (hydroxytyrosol 2.95 mg/kg oral), geometric mean (95% CI)", "value": "7e-05", "unit": "s⁻¹"}, {"measurement": "Cmax", "setting": "[1]; Sprague-Dawley, rat, plasma, 30 olives group (hydroxytyrosol 2.95 mg/kg oral)", "value": "23.4 ± 1.68", "unit": "nM"}, {"measurement": "CL/F", "setting": "[1]; Sprague-Dawley, rat, plasma, 60 olives group (hydroxytyrosol 5.89 mg/kg oral), geometric mean (95% CI), read-out: Cl/F (apparent clearance)", "value": 257, "unit": "L/h/kg"}, {"measurement": "MRT inf", "setting": "[1]; Sprague-Dawley, rat, plasma, 60 olives group (hydroxytyrosol 5.89 mg/kg oral), geometric mean (95% CI), read-out: MRT0–∞ (converted)", "value": 3.44, "unit": "h"}, {"measurement": "k el", "setting": "[1]; Sprague-Dawley, rat, plasma, 60 olives group (hydroxytyrosol 5.89 mg/kg oral), geometric mean (95% CI)", "value": 0.000105, "unit": "s⁻¹"}, {"measurement": "Cmax", "setting": "[1]; Sprague-Dawley, rat, plasma, 60 olives group (hydroxytyrosol 5.89 mg/kg oral)", "value": "43 ± 1.39", "unit": "nM"}, {"measurement": "MRT inf", "setting": "[1]; Sprague-Dawley, rat, plasma, both doses (30 and 60 olives groups), oral table olives, read-out: mean residence time (MRT0–∞)", "value": "~4", "unit": "h"}, {"measurement": "PK behaviour between doses (dose linearity)", "setting": "[1]; between doses of 2.95 and 5.85 mg hydroxytyrosol/kg, noncompartmental analysis", "value": "linear PK"}, {"measurement": "percentage of the AUC of each compound divided by the AUC of the sum of all of them", "setting": "[1]; both doses (similar ratios between doses), plasma", "value": 11, "unit": "%"}, {"measurement": "share in rat plasma", "setting": "[2]; after phenolic extract from olive cake containing 10.35 mg/kg of hydroxytyrosol", "value": 6, "unit": "%"}, {"measurement": "Tmax", "setting": "[2]; sampling times limited to 1, 2 and 4 h", "value": 2, "unit": "h"}, {"measurement": "Cmax", "setting": "[3]; 10 Kalamata olives with 389.87 mg hydroxytyrosol/kg, parent compound", "value": 0.64, "unit": "nM"}, {"measurement": "AUC", "setting": "[3]; converted unit", "value": 0.65, "unit": "nM·h"}, {"measurement": "AUC", "setting": "[3]", "value": 0.65, "unit": "nM·h"}]}
